Tests used:
[1] = Drug level in 0.1 N NaOH aqueous solution assessed as compound formation treated with 40 uM N-((2-isopropyl-7-methyl-1-oxoisoindolin-5-yl)methyl)isoxazole-5-carboxamide for 20 mins by LC-MS/MS analysis; format: physicochemical; conditions: buffer
[2] = system: Liver microsome; test: Drug level in human liver microsomes assessed as compound formation treated with 20 uM N-((2-isopropyl-7-methyl-1-oxoisoindolin-5-yl)methyl)isoxazole-5-carboxamide (drug stock solution contained 1% acetonitrile) LC-MS/MS analysis in presence of NADPH and GSH; format: ADME
[3] = system: Liver microsome; test: Drug metabolism in human liver microsomes treated with 20 uM N-((2-isopropyl-7-methyl-1-oxoisoindolin-5-yl)methyl)isoxazole-5-carboxamide assessed compound formation in presence of NADPH using [13C]-labeled CH3OH drug stock solution at 37 degC incubated for 1 hr by liquid chromatography; format: ADME
[4] = Drug level in 0.1 N NaOH aqueous solution assessed as compound formation treated with 40 uM N-((2-isopropyl-7-methyl-1-oxoisoindolin-5-yl)methyl)isoxazole-5-carboxamide for 20 mins at pH 7.5 by LC-MS/MS analysis in presence of formaldehyde and GSH; format: physicochemical; conditions: buffer, pH 7.5, 20 min
[5] = system: Liver microsome; test: Retention time of the compound in human liver microsomes in presence of NADPH at 37 degC incubated for 1 hr by liquid chromatography; format: ADME
[6] = system: Liver microsome; test: Drug level in human liver microsomes assessed as compound formation treated with 20 uM N-((2-isopropyl-7-methyl-1-oxoisoindolin-5-yl)methyl)isoxazole-5-carboxamide (drug stock solution contained 1% methanol) LC-MS/MS analysis in presence of NADPH and GSH; format: ADME
[7] = system: Liver microsome; test: Drug metabolism in human liver microsomes assessed metabolite formation at 20 uM in absence of NADPH at 37 degC incubated for 1 hr by liquid chromatography; format: ADME
[8] = system: Liver microsome; test: Drug metabolism in human liver microsomes assessed as metabolite formation at 20 uM (drug stock solution contained 1% acetonitrile) LC-MS/MS analysis in presence of NADPH and GSH; format: ADME
[9] = system: Liver microsome; test: Drug metabolism in human liver microsomes assessed ratio of sum peak areas of metabolite M1 and M2 to peak area of internal standard at 20 uM in presence of NADPH and 1 mM 1-ABT at 37 degC incubated for 1 hr by liquid chromatography; format: ADME
[10] = system: Liver microsome; test: Drug metabolism in human liver microsomes assessed as 2-amino-5-(1-(carboxymethylamino)-3-(3-cyano-5-((2-isopropyl-7-methyl-1-oxoisoindolin-5-yl)methylamino)-4,5-dioxopentan-2-ylthio)-1-oxopropan-2-ylamino)-5-oxopentanoic acid formation at 20 uM (drug stock solution contained ethanol) by LC-MS/MS analysis in presence of NADPH; format: ADME
[11] = system: Liver microsome; test: Drug metabolism in human liver microsomes assessed as (Z)-3-cyano-2-hydroxy-N-((2-isopropyl-7-methyl-1-oxoisoindolin-5-yl)methyl)acrylamide formation at 20 uM for 1 hr by LC-MS/MS analysis in presence of NADPH; format: ADME
[12] = system: Liver microsome; test: Drug metabolism in human liver microsomes assessed ratio of sum peak areas of metabolite M1 and M2 to peak area of internal standard at 20 uM in presence of NADPH and in absence of 1 mM 1-ABT at 37 degC incubated for 1 hr by liquid chromatography; format: ADME
[13] = system: Liver microsome; test: Drug level in human liver microsomes assessed as compound formation treated with 20 uM N-((2-isopropyl-7-methyl-1-oxoisoindolin-5-yl)methyl)isoxazole-5-carboxamide for 1 hr by LC-MS/MS analysis in presence of NADPH; format: ADME
[14] = system: Liver microsome; test: Drug level in human liver microsomes assessed as compound formation treated with 20 uM N-((2-isopropyl-7-methyl-1-oxoisoindolin-5-yl)methyl)isoxazole-5-carboxamide (drug stock solution contained 1% acetonitrile) LC-MS/MS analysis in presence of NADPH; format: ADME
[15] = system: Liver microsome; test: Drug level in human liver microsomes assessed as compound formation treated with 20 uM N-((2-isopropyl-7-methyl-1-oxoisoindolin-5-yl)methyl)isoxazole-5-carboxamide (drug stock solution contained 1% ethanol) LC-MS/MS analysis in presence of NADPH; format: ADME

Cc1cc(CNC(=O)C(=O)C(C#N)CSC[C@H](NC(=O)CC[C@H](N)C(=O)O)C(=O)NCC(=O)O)cc2c1C(=O)N(C(C)C)C2 (some centres not stated)
Drug metabolism [1]: metabolite_detected | Drug metabolism [2]: metabolite_not_detected | Drug metabolism [3]: metabolite_detected | Drug metabolism [4]: metabolite_detected | Retention_time [5]: 9.72 min | Drug metabolism [6]: metabolite_detected

Cc1cc(CNC(=O)c2ccno2)cc2c1C(=O)N(C(C)C)C2
Drug metabolism [7]: metabolite_not_detected | Drug metabolism [8]: metabolite_not_detected | Ratio [9]: 0.128 | Drug metabolism [10]: metabolite_detected | Retention_time [5]: 17.06 min | Drug metabolism [11]: metabolite_detected | Ratio [12]: 1.22

Cc1cc(CNC(=O)/C(O)=C/C#N)cc2c1C(=O)N(C(C)C)C2
Drug metabolism [13]: metabolite_detected | Drug metabolism [1]: metabolite_detected | Retention_time [5]: 13.55 min

Cc1cc(CNC(=O)C(=O)CC#N)cc2c1C(=O)N(C(C)C)C2
Drug metabolism [1]: metabolite_detected | Retention_time [5]: 12.69 min

Cc1cc(CNC(=O)C(=O)C(C#N)C(C)SC[C@H](NC(=O)CC[C@H](N)C(=O)O)C(=O)NCC(=O)O)cc2c1C(=O)N(C(C)C)C2 (single isomer, unassigned; diastereomer 1)
Retention_time [5]: 10.82 min

Cc1cc(CNC(=O)C(=O)C(C#N)C(C)SC[C@H](NC(=O)CC[C@H](N)C(=O)O)C(=O)NCC(=O)O)cc2c1C(=O)N(C(C)C)C2 (single isomer, unassigned; diastereomer 2)
Drug metabolism [14]: metabolite_not_detected | Retention_time [5]: 10.08 min | Drug metabolism [15]: metabolite_detected
